Experimental data as given in ChEMBL document CHEMBL5113530, “Butyrylation Meets Adipogenesis-Probed by a p300-Catalyzed Acylation-Specific Small Molecule Inhibitor: Implication in Anti-obesity Therapy” (J Med Chem, 2022).
Active and inactive are the calls of the source. The calls are words filed in the database; no cut-off is given here.

Legend:
[1] = Toxicity in female Sprague-Dawley rat assessed as average water intake measured per day at 1000 mg/kg, po administered as single dose measured on day 1 (Rvb =25 ml/day); assay type: organism-based; conditions: in vivo, 24 h, time 1 day
[2] = Toxicity in female Sprague-Dawley rat assessed as average water intake measured per day at 1000 mg/kg, po administered as single dose measured on day 7 (Rvb =21 ml/day); assay type: organism-based; conditions: in vivo, 168 h, time 7 day
[3] = Toxicity in female Sprague-Dawley rat assessed as effect on body weight at 250 mg/kg, po administered as single dose measured on day 1 (Rvb =152.21 +/- 6.58 g); assay type: organism-based; conditions: in vivo, 24 h, time 1 day
[4] = Toxicity in female Sprague-Dawley rat assessed as average food intake at 1000 mg/kg, po administered as single dose measured on day 7 (Rvb =15.65 g/day); assay type: organism-based; conditions: in vivo, 168 h, time 7 day
[5] = Toxicity in female Sprague-Dawley rat assessed as average water intake measured per day at 250 mg/kg, po administered as single dose measured on day 14 (Rvb =26 ml/day); assay type: organism-based; conditions: in vivo, 336 h, time 14 day
[6] = Toxicity in male Sprague-Dawley rat assessed as effect on body weight at 500 mg/kg, po administered as single dose measured on day 14 (Rvb =231.13 +/- 18.38 g); assay type: organism-based; conditions: in vivo, 336 h, time 14 day
3T3-L1 [7] = assay: Anti-adipogenic activity against mouse 3T3-L1 cells assessed as upregulation of KDM4C mRNA expression at 25 uM measured after 7 days by qRT-PCR analysis; assay type: functional, cell-based; conditions: time 7.0 day
[8] = Toxicity in female Sprague-Dawley rat assessed as average water intake measured per day at 250 mg/kg, po administered as single dose measured on day 7 (Rvb =21 ml/day); assay type: organism-based; conditions: in vivo, 168 h, time 7 day
[9] = Toxicity in male Sprague-Dawley rat assessed as average water intake measured per day at 250 mg/kg, po administered as single dose measured on day 14 (Rvb =34 ml/day); assay type: organism-based; conditions: in vivo, 336 h, time 14 day
[10] = Mutagenicity in Salmonella typhimurium TA98 assessed as number of revertants measured per plate at 10 to 1000 incubated for 48 hrs in absence of rat liver S9 fraction by plate incorporation assay; assay type: toxicity; conditions: salmonella enterica subsp. enterica serovar typhimurium, s9, 48 h, dose 10-1000 µg
[11] = Toxicity in male Sprague-Dawley rat assessed as effect on body weight at 250 mg/kg, po administered as single dose measured on day 14 (Rvb =231.13 +/- 18.38 g); assay type: organism-based; conditions: in vivo, 336 h, time 14 day
Mus musculus [12] = assay: Anti-obesity activity in db/db mouse assessed as inhibition of slc2a4 expression at 50 mg/kg, po qd administered for 30 days by qRT-PCR analysis; assay type: functional, organism-based; conditions: time 30.0 day
[13] = Mutagenicity in Salmonella typhimurium TA100 assessed as number of revertants measured per plate at 10 to 1000 incubated for 48 hrs in presence of rat liver S9 fraction by plate incorporation assay; assay type: toxicity; conditions: salmonella enterica subsp. enterica serovar typhimurium, s9, 48 h, dose 10-1000 µg
Mus musculus [14] = assay: Anti-obesity activity in C57BL6/J mouse model of high fat diet-induced obesity assessed as reduction in epididymal fat pad weight at 50 mg/kg; assay type: functional, organism-based
[15] = Toxicity in female Sprague-Dawley rat assessed as effect on body weight at 1000 mg/kg, po administered as single dose measured on day 14 (Rvb =171.5 +/- 6.65 g); assay type: organism-based; conditions: in vivo, 336 h, time 14 day
[16] = Toxicity in female Sprague-Dawley rat assessed as average water intake measured per day at 500 mg/kg, po administered as single dose measured on day 1 (Rvb =25 ml/day); assay type: organism-based; conditions: in vivo, 24 h, time 1 day
[17] = Toxicity in male Sprague-Dawley rat assessed as average water intake measured per day at 1000 mg/kg, po administered as single dose measured on day 7 (Rvb =30 ml/day); assay type: organism-based; conditions: in vivo, 168 h, time 7 day
Mus musculus [18] = assay: Anti-obesity activity in db/db mouse assessed as inhibition of Pprag-gene expression at 50 mg/kg, po qd administered for 30 days by qRT-PCR analysis; assay type: functional, organism-based; conditions: time 30.0 day
[19] = target: Histone acetyltransferase p300 (Homo sapiens) (UniProt Q09472); assay: Inhibition of recombinant full length His-tagged EP300 catalyzed butyrylation (unknown origin) expressed in baculovirus infected Sf21insect cells using Histone H3 as substrate at 25 uM preincubated with compound for 10 mins followed by butyryl-CoA addition and measured after 10 mins by Western blot analysis; conditions: Sf21, time 20.0 min
Sequence of Histone acetyltransferase p300 (Homo sapiens) (Q09472 whole entry): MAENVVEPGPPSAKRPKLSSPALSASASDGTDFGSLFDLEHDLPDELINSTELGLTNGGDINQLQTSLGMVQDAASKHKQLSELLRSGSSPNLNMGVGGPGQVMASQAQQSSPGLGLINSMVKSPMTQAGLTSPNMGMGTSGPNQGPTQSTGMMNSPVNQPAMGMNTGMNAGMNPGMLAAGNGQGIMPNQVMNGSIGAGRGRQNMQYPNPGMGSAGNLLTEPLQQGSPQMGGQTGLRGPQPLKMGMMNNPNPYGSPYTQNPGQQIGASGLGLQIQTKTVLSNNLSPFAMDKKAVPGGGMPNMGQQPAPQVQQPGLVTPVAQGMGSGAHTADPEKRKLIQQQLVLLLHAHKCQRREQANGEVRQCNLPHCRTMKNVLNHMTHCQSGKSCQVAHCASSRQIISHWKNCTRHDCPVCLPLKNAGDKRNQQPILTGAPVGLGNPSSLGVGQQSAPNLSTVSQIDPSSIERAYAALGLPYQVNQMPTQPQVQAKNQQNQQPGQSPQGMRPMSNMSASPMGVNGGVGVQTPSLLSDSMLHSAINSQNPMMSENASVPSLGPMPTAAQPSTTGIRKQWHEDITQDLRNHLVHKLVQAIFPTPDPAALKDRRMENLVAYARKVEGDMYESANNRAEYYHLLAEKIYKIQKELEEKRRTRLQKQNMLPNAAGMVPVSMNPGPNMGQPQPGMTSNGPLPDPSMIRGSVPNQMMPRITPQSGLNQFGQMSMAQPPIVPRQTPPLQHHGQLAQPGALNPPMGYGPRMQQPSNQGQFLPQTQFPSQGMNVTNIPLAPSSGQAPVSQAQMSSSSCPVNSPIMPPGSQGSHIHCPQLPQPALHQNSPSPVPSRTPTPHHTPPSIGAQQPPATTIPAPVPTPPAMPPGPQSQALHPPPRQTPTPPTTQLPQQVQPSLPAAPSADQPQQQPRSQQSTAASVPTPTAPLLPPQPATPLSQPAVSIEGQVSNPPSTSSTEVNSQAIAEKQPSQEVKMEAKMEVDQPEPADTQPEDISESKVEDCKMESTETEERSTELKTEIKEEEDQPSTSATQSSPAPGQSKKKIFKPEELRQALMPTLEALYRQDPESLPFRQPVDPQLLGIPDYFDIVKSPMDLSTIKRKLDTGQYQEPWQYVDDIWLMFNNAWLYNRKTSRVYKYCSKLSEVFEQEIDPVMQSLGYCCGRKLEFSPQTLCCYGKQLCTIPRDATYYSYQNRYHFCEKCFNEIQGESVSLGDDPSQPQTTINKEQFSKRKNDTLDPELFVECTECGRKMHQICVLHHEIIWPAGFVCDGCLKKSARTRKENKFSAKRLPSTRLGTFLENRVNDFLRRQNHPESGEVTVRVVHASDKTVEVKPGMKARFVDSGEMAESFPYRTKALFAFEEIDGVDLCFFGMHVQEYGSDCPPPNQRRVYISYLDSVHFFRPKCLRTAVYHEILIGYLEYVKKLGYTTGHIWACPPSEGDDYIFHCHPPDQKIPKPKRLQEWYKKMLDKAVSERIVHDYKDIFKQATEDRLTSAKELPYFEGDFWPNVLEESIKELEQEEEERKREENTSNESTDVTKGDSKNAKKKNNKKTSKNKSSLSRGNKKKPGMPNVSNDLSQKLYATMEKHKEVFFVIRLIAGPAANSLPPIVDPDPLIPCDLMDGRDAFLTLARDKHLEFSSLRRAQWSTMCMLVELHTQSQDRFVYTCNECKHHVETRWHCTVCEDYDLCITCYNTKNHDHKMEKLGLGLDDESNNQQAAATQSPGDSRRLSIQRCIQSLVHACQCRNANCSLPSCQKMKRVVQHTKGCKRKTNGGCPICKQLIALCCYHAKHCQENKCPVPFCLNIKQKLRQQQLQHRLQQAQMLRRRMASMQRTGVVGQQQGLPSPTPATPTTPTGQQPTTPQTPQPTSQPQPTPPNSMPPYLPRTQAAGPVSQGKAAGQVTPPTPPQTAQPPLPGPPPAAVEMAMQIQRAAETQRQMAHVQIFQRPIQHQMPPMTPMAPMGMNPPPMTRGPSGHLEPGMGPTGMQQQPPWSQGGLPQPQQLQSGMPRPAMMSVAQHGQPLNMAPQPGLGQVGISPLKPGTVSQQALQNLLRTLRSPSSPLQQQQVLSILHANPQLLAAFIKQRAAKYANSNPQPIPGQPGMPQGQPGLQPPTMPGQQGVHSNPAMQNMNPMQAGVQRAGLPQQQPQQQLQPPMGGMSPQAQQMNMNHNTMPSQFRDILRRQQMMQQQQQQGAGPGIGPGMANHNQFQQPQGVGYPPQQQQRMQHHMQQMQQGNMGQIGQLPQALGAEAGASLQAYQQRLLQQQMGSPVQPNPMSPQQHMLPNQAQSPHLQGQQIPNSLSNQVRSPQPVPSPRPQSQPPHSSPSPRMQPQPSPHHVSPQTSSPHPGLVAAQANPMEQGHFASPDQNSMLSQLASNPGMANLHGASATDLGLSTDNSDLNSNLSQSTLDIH

[20] = Mutagenicity in Salmonella typhimurium TA97a assessed as number of revertants measured per plate at 10 to 1000 incubated for 48 hrs in presence of rat liver S9 fraction by plate incorporation assay; assay type: toxicity; conditions: salmonella enterica subsp. enterica serovar typhimurium, s9, 48 h, dose 10-1000 µg
[21] = Toxicity in male Sprague-Dawley rat assessed as average water intake measured per day at 1000 mg/kg, po administered as single dose measured on day 14 (Rvb =34 ml/day); assay type: organism-based; conditions: in vivo, 336 h, time 14 day
[22] = Toxicity in female Sprague-Dawley rat assessed as effect on body weight at 1000 mg/kg, po administered as single dose measured on day 7 (Rvb =169.81 +/- 6.57 g); assay type: organism-based; conditions: in vivo, 168 h, time 7 day
[23] = Toxicity in male Sprague-Dawley rat assessed as average water intake measured per day at 250 mg/kg, po administered as single dose measured on day 1 (Rvb =32 ml/day); assay type: organism-based; conditions: in vivo, 24 h, time 1 day
[24] = Toxicity in male Sprague-Dawley rat assessed as average food intake at 500 mg/kg, po administered as single dose measured on day 1 (Rvb =20.38 g/day); assay type: organism-based; conditions: in vivo, 24 h, time 1 day
3T3-L1 [25] = assay: Cytotoxicity against in mouse 3T3-L1 cells assessed as effect on cellular oxidoreductase activity at 25 uM incubated for 6 days by MTT assay; assay type: toxicity, cell-based; conditions: 3t3-l1, 144 h, time 6 day
[26] = Toxicity in male Sprague-Dawley rat assessed as average food intake at 250 mg/kg, po administered as single dose measured on day 14 (Rvb =21.24 g/day); assay type: organism-based; conditions: in vivo, 336 h, time 14 day
3T3-L1 [27] = assay: Anti-adipogenic activity against mouse 3T3-L1 cells assessed as downregulation of PPARG mRNA expression at 25 uM measured after 7 days by qRT-PCR analysis; assay type: functional, cell-based; conditions: time 7.0 day
3T3-L1 [28] = assay: Inhibition of H3K23 butyrylation in mouse 3T3-L1 cells by Immunoblotting analysis; assay type: functional, cell-based
[29] = Stability of compound in mouse 3T3-L1 cells measured after 6 days by LC-ESI-MS analysis; assay type: ADME, cell-based; conditions: 3t3-l1, 144 h, time 6 day
[30] = Toxicity in female Sprague-Dawley rat assessed as effect on body weight at 250 mg/kg, po administered as single dose measured on day 14 (Rvb =171.5 +/- 6.65 g); assay type: organism-based; conditions: in vivo, 336 h, time 14 day
Mus musculus [31] = assay: Anti-obesity activity in db/db mouse assessed as reduction in adipocyte hypertrophy at 50 mg/kg, po qd administered for 30 days by hematoxylin and eosin staining based assay; assay type: functional, organism-based; conditions: time 30.0 day
3T3-L1 [32] = assay: Anti-adipogenic activity against mouse 3T3-L1 cells at 25 uM incubated for 8 days by Oil Red O staining based spectrophotometric analysis; assay type: functional, cell-based; conditions: time 8.0 day
[33] = Toxicity in male Sprague-Dawley rat assessed as effect on body weight at 1000 mg/kg, po administered as single dose measured on day 14 (Rvb =231.13 +/- 18.38 g); assay type: organism-based; conditions: in vivo, 336 h, time 14 day
[34] = Toxicity in male Sprague-Dawley rat assessed as average food intake at 500 mg/kg, po administered as single dose measured on day 14 (Rvb =21.24 g/day); assay type: organism-based; conditions: in vivo, 336 h, time 14 day

Compound COc1ccc(C(=O)C2=C3OC(C)(C)[C@@H](CC=C(C)C)C[C@@]34C[C@@H](CC=C(C)C)C(C)(C)[C@](CC=C(C)C)(C2=O)C4=O)cc1OC has an Activity [1] of 26 mL, an Activity [2] of 22 mL and an Activity [3] of 151.99 g. The Activity [4] was 17.82 g/day, the Activity [5] was 24 mL and the Activity [6] was 243.14 g. The Activity (3T3-L1 [7]) was “Active”, the Activity [8] was 21 mL and the Activity [9] was 34 mL. The Activity [10] was “Non-Toxic”, the Activity [11] was 244.21 g and the Activity (Mus musculus [12]) was “Active”. For the same compound, the Activity [13] was “Non-Toxic”, the Activity (Mus musculus [14]) was “Active” and the Activity [15] was 179.52 g. For the same compound, the Activity [16] was 25 mL, the Activity [17] was 31 mL and the Activity (Mus musculus [18]) was “Active”. The inhibition [19] was “Active”, the Activity [20] was “Non-Toxic” and the Activity [21] was 38 mL. It also gave an Activity [22] of 178.58 g, an Activity [23] of 32 mL and an Activity [24] of 20.99 g/day. For the same compound, the Activity (3T3-L1 [25]) was “Non-Toxic”, the Activity [26] was 22.62 g/day and the Activity (3T3-L1 [27]) was “Active”. The inhibition (3T3-L1 [28]) was “Active”, the Stability [29] was “Stable” and the Activity [30] was 176.35 g. The Activity (Mus musculus [31]) was “Active”, the Activity (3T3-L1 [32]) was “Active” and the Activity [33] was 226.19 g. For the same compound, the Activity [34] was 23.29 g/day.
